Assay results taken from patent US20140249135A1, “PIM KINASE INHIBITORS AND METHODS OF THEIR USE” (NOVARTIS AG, priority 2007, published 2014).
pIC50: −log10 of the molar value. Read-outs that look alike come from different tables or passages of the source.

Experiments:
Format in all cases: biochemical
Pim1 kinase = Pim1 kinase (Homo sapiens, UniProt P11309); assay: Pim1 ATP depletion assay;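 also: Luciferase-luciferin luminescence readout of residual ATP after PIM1 transfers phosphate to a peptide substrate, 40 µM ATP added, reaction run to roughly half ATP consumption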
Pim2 kinase = Pim2 kinase (Homo sapiens, UniProt Q9P1W9); assay: Pim2 ATP depletion assay; conditions: read-out: PIM2 IC50;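 also: Luciferase-based luminescent readout of ATP remaining after PIM2 phosphorylates a BAD peptide, final 5 nM enzyme, 4 µM ATP, 10 µM peptide, 2.5% DMSO, run to roughly half ATP consumption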
Pim3 kinase = Pim3 kinase (Homo sapiens, UniProt Q86V86); assay: Pim3 ATP depletion assay; conditions: read-out: PIM3 IC50
[1] = Pim1 ATP depletion assay, read-out: PIM1 IC50

Measured: pIC50

Pim1 kinase, sequence (P11309 whole entry): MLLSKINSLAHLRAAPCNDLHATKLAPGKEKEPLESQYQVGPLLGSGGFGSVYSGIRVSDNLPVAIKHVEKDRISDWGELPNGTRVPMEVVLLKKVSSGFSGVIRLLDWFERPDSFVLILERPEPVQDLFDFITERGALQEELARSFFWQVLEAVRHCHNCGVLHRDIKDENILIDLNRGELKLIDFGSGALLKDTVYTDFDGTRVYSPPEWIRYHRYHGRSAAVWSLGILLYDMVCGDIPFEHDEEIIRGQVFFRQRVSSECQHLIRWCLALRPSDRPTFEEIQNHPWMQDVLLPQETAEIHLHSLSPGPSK
Pim2 kinase, sequence (Q9P1W9 whole entry): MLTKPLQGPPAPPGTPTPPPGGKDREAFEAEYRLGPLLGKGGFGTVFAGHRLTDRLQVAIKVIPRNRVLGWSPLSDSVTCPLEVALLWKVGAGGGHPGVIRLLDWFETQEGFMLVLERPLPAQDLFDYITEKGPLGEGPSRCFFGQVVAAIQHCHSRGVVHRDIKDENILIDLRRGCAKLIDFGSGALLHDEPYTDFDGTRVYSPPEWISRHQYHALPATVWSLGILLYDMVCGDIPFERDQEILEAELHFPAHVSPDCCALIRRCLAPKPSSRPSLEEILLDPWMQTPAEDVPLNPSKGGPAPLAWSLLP

Nc1ccc(-c2ccccn2)nc1C(=O)Nc1cnccc1N1CCC[C@H](N)C1 [Example 730, 5-Amino-[2,2′]bipyridinyl-6-carboxylic acid (3-amino-3,4,5,6-tetrahydro-2H-[1,4′]bi-pyridinyl-3′-yl)-amide]
> 6.00: Pim1 kinase; [1] | Pim2 kinase | Pim3 kinase

COc1nc(-c2ccc(N)c(C(=O)Nc3cnccc3N3CCC[C@H](N)C3)n2)cnc1N [Example 731, 3-Amino-6-(5-amino-6-methoxy-pyrazin-2-yl)-pyridine-2-carboxylic acid (3-amino-3,4,5,6-tetrahydro-2H-[1,4′]bi-pyridinyl-3′-yl)-amide]
> 6.00: Pim1 kinase; [1] | Pim2 kinase | Pim3 kinase

CC(C)NC(=O)c1ccc(F)c(-c2ccc(N)c(C(=O)Nc3cnccc3N3CC[C@@H](O)[C@H](N)C3)n2)c1F [Example 732, 3-Amino-6-(2,6-difluoro-3-isopropylcarbamoyl-phenyl)-pyridine-2-carboxylic acid (3-amino-4-hydroxy-3,4,5,6-tetra-hydro-2H-[1,4′]bipyridinyl-3′-yl)-amide]
> 6.00: Pim1 kinase; [1] | Pim2 kinase | Pim3 kinase

CC(C)NC(=O)c1ccc(F)c(-c2ccc(N)c(C(=O)Nc3cnccc3N3CC[C@@H](F)[C@H](N)C3)n2)c1F [Example 733, 3-Amino-6-(2,6-difluoro-3-isopropylcarbamoyl-phenyl)-pyridine-2-carboxylic acid (3-amino-4-fluoro-3,4,5,6-tetra-hydro-2H-[1,4′]bipyridinyl-3′-yl)-amide]
> 6.00: Pim1 kinase; [1] | Pim2 kinase | Pim3 kinase

Nc1ccc(-c2ncccc2F)nc1C(=O)Nc1cnccc1N1CCC(N)C(O)C1 (stereo not drawn) [Example 734, 5-Amino-3′-fluoro-[2,2′]bi-pyridinyl-6-carboxylic acid (4-amino-3-hydroxy-3,4,5,6-tetra-hydro-2H-[1,4′]bipyridinyl-3′-yl)-amide]
> 6.00: Pim1 kinase; [1] | Pim2 kinase | Pim3 kinase

Nc1ccc(-c2ncccc2F)nc1C(=O)Nc1cnccc1N1CCC(O)C(N)C1 (stereo not drawn) [Example 735, 5-Amino-3′-fluoro-[2,2′]bi-pyridinyl-6-carboxylic acid (3-amino-4-hydroxy-3,4,5,6-tetra-hydro-2H-[1,4′]bipyridinyl-3′-yl)-amide]
> 6.00: Pim1 kinase; [1] | Pim2 kinase | Pim3 kinase

Cc1ccnc(-c2nc(C(=O)Nc3cnccc3N3CCC[C@H](N)C3)c(N)cc2F)c1F [Example 737, 5-Amino-3,3′-difluoro-4′-methyl-[2,2′]bipyridinyl-6-carboxylic acid (3-amino-3,4,5,6-tetrahydro-2H-[1,4′]bi-pyridinyl-3′-yl)-amide]
> 6.00: Pim1 kinase; [1] | Pim2 kinase | Pim3 kinase

CCCOc1cncc(-c2nc(C(=O)Nc3cnccc3N3CCC[C@H](N)C3)c(N)cc2F)n1 [Example 738, 3-Amino-5-fluoro-6-(6-propoxy-pyrazin-2-yl)-pyridine-2-carboxylic acid (3-amino-3,4,5,6-tetrahydro-2H-[1,4′]bi-pyridinyl-3′-yl)-amide]
> 6.00: Pim1 kinase; [1] | Pim2 kinase | Pim3 kinase

CC(C)Oc1cncc(-c2nc(C(=O)Nc3cnccc3N3CCC[C@H](N)C3)c(N)cc2F)n1 [Example 739, 3-Amino-5-fluoro-6-(6-isopropoxy-pyrazin-2-yl)-pyridine-2-carboxylic acid (3-amino-3,4,5,6-tetrahydro-2H-[1,4′]bipyridinyl-3′-yl)-amide]
> 6.00: Pim1 kinase; [1] | Pim2 kinase | Pim3 kinase

CCOc1cncc(-c2nc(C(=O)Nc3cnccc3N3CCC[C@H](N)C3)c(N)cc2F)n1 [Example 740, 3-Amino-6-(6-ethoxy-pyrazin-2-yl)-5-fluoro-pyridine-2-carboxylic acid (3-amino-3,4,5,6-tetrahydro-2H-[1,4′]bi-pyridinyl-3′-yl)-amide]
> 6.00: Pim1 kinase; [1] | Pim2 kinase | Pim3 kinase

CC(C)COc1cncc(-c2nc(C(=O)Nc3cnccc3N3CCC[C@H](N)C3)c(N)cc2F)n1 [Example 741, 3Amino-5-fluoro-6-(6-isobutoxy-pyrazin-2-yl)-pyridine-2-carboxylic acid (3-amino-3,4,5,6-tetrahydro-2H-[1,4′]bipyridinyl-3′-yl)-amide]
> 6.00: Pim1 kinase; [1] | Pim2 kinase | Pim3 kinase

COC(=O)c1nc(-c2nc(C(=O)Nc3cnccc3N3CCC[C@H](N)C3)c(N)cc2F)c(F)cc1N [Example 742, 5,5′-Diamino-6′-(3-amino-3,4,5,6-tetrahydro-2H-[1,4′]bi-pyridinyl-3′-ylcarbamoyl)-3,3′-difluoro-[2,2′]bipyridinyl-6-carboxylic acid methyl ester]
> 6.00: Pim1 kinase; [1] | Pim2 kinase | Pim3 kinase

Nc1cc(F)c(-c2ncccc2Cl)nc1C(=O)Nc1cnccc1N1CCC[C@H](N)C1 [Example 743, 5-Amino-3′-chloro-3-fluoro-[2,2′]bipyridinyl-6-carboxylic acid (3-amino-3,4,5,6-tetra-hydro-2H-[1,4′]bipyridinyl-3′-yl)-amide]
> 6.00: Pim1 kinase; [1] | Pim2 kinase | Pim3 kinase

Cc1ccc(F)c(-c2nc(C(=O)Nc3cnccc3N3CCC[C@H](N)C3)c(N)cc2F)n1 [Example 745, 5-Amino-3,3′-difluoro-6′-methyl-[2,2′]bipyridinyl-6-carboxylic acid (3-amino-3,4,5,6-tetrahydro-2H-[1,4′]bi-pyridinyl-3′-yl)-amide]
> 6.00: Pim1 kinase; [1] | Pim2 kinase | Pim3 kinase

Cc1cc(-c2ccncc2NC(=O)c2nc(-c3ncccc3F)ccc2N)cc(N)n1 [Example 746, 5-Amino-3′-fluoro-[2,2′]bi-pyridinyl-6-carboxylic acid (2′-amino-6′-methyl-[4,4′]bi-pyridinyl-3-yl)-amide]
> 6.00: Pim1 kinase; [1] | Pim2 kinase | Pim3 kinase

CCCOc1cncc(-c2ccc(N)c(C(=O)Nc3cnccc3N3CCC[C@H](N)C3)n2)n1 [Example 747, 3-Amino-6-(6-propoxy-pyrazin-2-yl)-pyridine-2-carboxylic acid (3-amino-3,4,5,6-tetrahydro-2H-[1,4′]bipyridinyl-3′-yl)-amide]
> 6.00: Pim1 kinase; [1] | Pim2 kinase | Pim3 kinase

CC(C)Oc1cncc(-c2ccc(N)c(C(=O)Nc3cnccc3N3CCC[C@H](N)C3)n2)n1 [Example 748, 3-Amino-6-(6-isopropoxy-pyrazin-2-yl)-pyridine-2-carboxylic acid (3-amino-3,4,5,6-tetrahydro-2H-[1,4′]bi-pyridinyl-3′-yl)-amide]
> 6.00: Pim1 kinase; [1] | Pim2 kinase | Pim3 kinase

CCOc1cncc(-c2ccc(N)c(C(=O)Nc3cnccc3N3CCC[C@H](N)C3)n2)n1 [Example 749, 3-Amino-6-(6-ethoxy-pyrazin-2-yl)-pyridine-2-carboxylic acid (3-amino-3,4,5,6-tetrahydro-2H-[1,4′]bipyridinyl-3′-yl)-amide]
> 6.00: Pim1 kinase; [1] | Pim2 kinase | Pim3 kinase

Nc1ccc(-c2cncc(OCc3ccccc3)n2)nc1C(=O)Nc1cnccc1N1CCC[C@H](N)C1 [Example 750, 3-Amino-6-(6-benzyloxy-pyrazin-2-yl)-pyridine-2-carboxylic acid (3-amino-3,4,5,6-tetrahydro-2H-[1,4′]bi-pyridinyl-3′-yl)-amide]
> 6.00: Pim1 kinase; [1] | Pim2 kinase | Pim3 kinase

Nc1cc(F)c(-c2c(F)ccc(O)c2F)nc1C(=O)Nc1cnccc1N1CCC[C@H](N)C1 [Example 751, 3-Amino-N-(4-((S)-3-aminopiperidin-1-yl)pyridin-3-yl)-6-(2,6-difluoro-3-hydroxyphenyl)-5-fluoropicolinamide]
> 6.00: Pim1 kinase; [1] | Pim2 kinase | Pim3 kinase

Nc1ccc(-c2c(F)cccc2F)nc1C(=O)Nc1cnccc1N1CC[C@@H](O)[C@@H](N)C1 [Example 752, 3-Amino-6-(2,6-difluoro-phenyl)-pyridine-2-carboxylic acid (3-amino-4-hydroxy-3,4,5,6-tetra-hydro-2H-[1,4′]bipyridinyl-3′-yl)-amide]
> 6.00: Pim1 kinase | Pim2 kinase | Pim3 kinase

CC(C)CCc1ccc(F)c(-c2ccc(N)c(C(=O)Nc3cnccc3N3CCC[C@H](N)C3)n2)c1 [Example 755, (S)-3-amino-N-(4-(3-aminopiperidin-1-yl)pyridin-3-yl)-6-(2-fluoro-5-isopentylphenyl)picolinamide]
> 6.00: Pim1 kinase; [1] | Pim2 kinase | Pim3 kinase
